What follows are molecules tested against T1, cloned human CRTH2 receptor (Homo sapiens, UniProt Q9Y5Y4) (assay: Radioligand membrane binding assay: inhibition of [3H] PGD2 binding to CRTH2 (Scintillation Proximity Assay)). Conditions: inhibition of [3H] PGD2 binding to membranes of HEK-293 cells stably expressing human CRTH2; SPA; 10 point curve from 10 μM; room temperature, approximately 2 hours.
T1 construct: purchased Biosignal; host or cells: HEK-293 cells stably expressing human CRTH2 and G-alpha-16 (membranes)
T1 sequence (Q9Y5Y4 1-395): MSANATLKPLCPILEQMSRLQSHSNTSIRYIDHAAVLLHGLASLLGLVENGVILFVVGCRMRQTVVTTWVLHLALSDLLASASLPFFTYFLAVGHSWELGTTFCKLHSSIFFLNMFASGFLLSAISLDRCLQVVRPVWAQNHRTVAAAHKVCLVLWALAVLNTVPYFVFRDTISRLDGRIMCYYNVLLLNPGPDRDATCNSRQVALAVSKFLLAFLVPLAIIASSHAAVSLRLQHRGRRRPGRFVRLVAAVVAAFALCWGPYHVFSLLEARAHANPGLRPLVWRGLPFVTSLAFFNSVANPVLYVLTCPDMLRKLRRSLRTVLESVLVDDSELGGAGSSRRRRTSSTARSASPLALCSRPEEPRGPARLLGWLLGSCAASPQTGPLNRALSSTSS
Description: This radioligand membrane binding assay evaluates the ability of compounds to inhibit [^3H] Prostaglandin D2 (PGD2) binding to the cloned human CRTH2 receptor stably expressed in HEK-293 cells (expressing human CRTh2 receptor and α subunit or the heteronimeric G protein 16 were prepared by Biosignal Company) using Scintillation Proximity Assay.
A binding buffer containing 50 mM Tris-HCl (pH 7.5), 5 mM MgCl2 and 1 mM EDTA was prepared immediately prior to performing the assay. A bead/membrane solution at twice the final assay concentration comprising membranes (membranes bought from Biosignal) from the HEK-293 cells cloned to express CRTH2 receptor bound to and [3H] PGD2 at twotimes the final assay concentration were prepared and stored on ice before adding to wells. Cold PGD2 at twenty times the final assay concentration was prepared and stored on ice before adding to wells defining non-specific binding (NSB) corning plates #3653 were used for this assay.
10 mM stock concentrations of compounds in 100% DMSO were prepared and stored at room temperature. A 10 point concentration response curve was then constructed for each compound, starting at 10 μM (final assay concentration). The compounds were prepared at 40 times final assay concentrations with nine consequent-3-fold dilutions.
0.1 μl of each concentration of compound were added to the appropriate well of the 384 plate and 2 μl of cold PGD2 was added into the wells defining NSB. 20 μl of [^3H] PGD2 and then 20 μl of 2× of bead/membrane solution were then added to each well.
The plates were allowed to incubate at room temperature for approximately 2 hours and then counted on Packard Topcount using SPA tritium protocol for 1 minute/well.
The percent inhibition of PGD2 binding (PGD2 used at the KD value or lower) to the HEK-293 cell membranes was determined, the assay was always run as duplicate for n=1 for a total of n=2.

SMILES	Ki
CCC(=O)N(c1ccc(Cl)cc1)C1CC(C)N(C(=O)c2ccc(F)cc2)c2ccc(/C=C/C(=O)O)cc21 (racemic) [Compound B-73, (±)-Cis-3-[4-[(4-chloro-phenyl)-propionyl-amino]-1-(4-fluoro-benzoyl)-2-methyl-1,2,3,4-tetrahydro-quinolin-6-yl]-acrylic acid]	< 10 µM
COc1cccc(C(=O)N2c3c(C)cccc3[C@H](N(C(C)=O)c3ccc(Cl)cc3)C[C@@H]2C)c1 (racemic) [Compound B-74, (±)-Cis-N-(4-chloro-phenyl)-N-[1-(3-methoxy-benzoyl)-2,8-dimethyl-1,2,3,4-tetrahydro-quinolin-4-yl]-acetamide]	< 10 µM
CCN(CC)c1ccc(N(C(C)=O)[C@@H]2C[C@H](C)N(C(=O)c3ccc(N(C)C)cc3)c3cc(N(CC)CC)ccc32)cc1 (racemic) [Compound B-84, (±)-Cis-N-[7-diethylamino-1-(4-dimethylamino-benzoyl)-2-methyl-1,2,3,4-tetrahydro-quinolin-4-yl]-N-(4-diethylamino-phenyl)-acetamide]	< 10 µM
CCC(=O)N(c1ccc(Cl)cc1)[C@@H]1C[C@H](C)N(C(=O)c2ccc(F)cc2)c2cccc(OC)c21 (racemic) [Compound B-86, (±)-Cis-N-(4-chloro-phenyl)-N-[1-(4-fluoro-benzoyl)-5-methoxy-2-methyl-1,2,3,4-tetrahydro-quinolin-4-yl]-propionamide]	< 10 µM
CCC(=O)N(c1ccc(Cl)cc1)[C@@H]1C[C@H](CCc2ccccc2)N(C(=O)c2ccc(F)cc2)c2ccccc21 (racemic) [Compound B-97, (±)-Cis-N-(4-chloro-phenyl)-N-[1-(4-fluoro-benzoyl)-2-phenethyl-1,2,3,4-tetrahydro-quinolin-4-yl]-propionamide]	< 10 µM
COc1cccc(C(=O)N2c3ccccc3[C@H](N(C(C)=O)c3ccccc3)C[C@@H]2c2ccccc2)c1 (racemic) [Compound B-100, (±)-Cis-N-[1-(3-methoxy-benzoyl)-2-phenyl-1,2,3,4-tetrahydro-quinolin-4-yl]-N-phenyl-acetamide]	< 60 µM
CCOC(=O)[C@H]1C[C@@H](N(C(C)=O)c2ccccc2)c2ccccc2N1C(=O)c1ccc(F)cc1 (racemic) [Compound B-101, (±)-Cis-4-(acetyl-phenyl-amino)-1-(4-fluoro-benzoyl)-1,2,3,4-tetrahydro-quinoline-2-carboxylic acid ethyl ester]	< 10 µM
CC(=O)N(c1ccccc1)[C@@H]1C[C@H](C(=O)O)N(C(=O)c2ccc(F)cc2)c2ccccc21 (racemic) [Compound B-102, (±)-Cis-4-(acetyl-phenyl-amino)-1-(4-fluoro-benzoyl)-1,2,3,4-tetrahydro-quinoline-2-carboxylic acid]	< 10 µM
CCC[C@H]1C[C@@H](N(C(=O)CC)c2ccc(Cl)cc2)c2ccccc2N1C(=O)c1ccc(F)cc1 (racemic) [Compound B-103, (±)-Cis-N-(4-chloro-phenyl)-N-[1-(4-fluoro-benzoyl)-2-propyl-1,2,3,4-tetrahydro-quinolin-4-yl]-propionamide]	< 10 µM
CCC(=O)OC[C@H]1C[C@@H](N(C(=O)CC)c2ccc(Cl)cc2)c2ccccc2N1C(=O)c1ccc(F)cc1 (racemic) [Compound B-104, (±)-Cis-propionic acid 4-[(4-chloro-phenyl)-propionyl-amino]-1-(4-fluoro-benzoyl)-1,2,3,4-tetrahydro-quinolin-2-ylmethyl ester]	< 10 µM
CCC(=O)N(c1ccc(Cl)cc1)[C@@H]1C[C@H](CO)N(C(=O)c2ccc(F)cc2)c2ccccc21 (racemic) [Compound B-105, (±)-Cis-N-(4-chloro-phenyl)-N-[1-(4-fluoro-benzoyl)-2-hydroxymethyl-1,2,3,4-tetrahydro-quinolin-4-yl]-propionamide]	< 10 µM
CCC(=O)N(c1ccc(Cl)cc1)[C@@H]1C[C@H](CN(CC)CC)N(C(=O)c2ccc(F)cc2)c2ccccc21 (racemic) [Compound B-106, (±)-Cis-N-(4-chloro-phenyl)-N-[2-diethylaminomethyl-1-(4-fluoro-benzoyl)-1,2,3,4-tetrahydro-quinolin-4-yl]-propionamide]	< 10 µM
CCC(=O)N(c1ccc(Cl)cc1)[C@@H]1C[C@H](COC)N(C(=O)c2ccc(F)cc2)c2ccccc21 (racemic) [Compound B-107, (±)-Cis-N-(4-chloro-phenyl)-N-[1-(4-fluoro-benzoyl)-2-methoxymethyl-1,2,3,4-tetrahydro-quinolin-4-yl]-propionamide]	< 10 µM
CCC(=O)N(c1ccc(Cl)cc1)[C@@H]1C[C@H](c2ccccc2)N(C(=O)c2ccc(F)cc2)c2ccccc21 (racemic) [Compound B-108, (±)-Cis-N-(4-chloro-phenyl)-N-[1-(4-fluoro-benzoyl)-2-phenyl-1,2,3,4-tetrahydro-quinolin-4-yl]-propionamide]	< 10 µM
CCC(=O)N(c1ccc(Cl)cc1)[C@@H]1C[C@H](C(F)(F)F)N(C(=O)c2ccc(F)cc2)c2ccc(OC)cc21 (racemic) [Compound B-109, (±)-Cis-N-(4-chloro-phenyl)-N-[1-(4-fluoro-benzoyl)-6-methoxy-2-trifluoromethyl-1,2,3,4-tetrahydro-quinolin-4-yl]-propionamide]	< 10 µM
CCC(=O)N(c1ccc(Cl)cc1)[C@@H]1C[C@H](C(F)(F)F)N(C(=O)c2cccc(OC)c2)c2ccc(OC)cc21 (racemic) [Compound B-110, (±)-Cis-N-(4-chloro-phenyl)-N-[6-methoxy-1-(3-methoxy-benzoyl)-2-trifluoromethyl-1,2,3,4-tetrahydro-quinolin-4-yl]-propionamide]	< 10 µM
CCC(=O)N(c1ccc(Cl)cc1)[C@@H]1C[C@H](C(F)(F)F)N(C(=O)c2ccco2)c2ccc(OC)cc21 (racemic) [Compound B-111, (±)-Cis-N-(4-chloro-phenyl)-N-[1-(furan-2-carbonyl)-6-methoxy-2-trifluoromethyl-1,2,3,4-tetrahydro-quinolin-4-yl]-propionamide]	< 10 µM
CCC(=O)N(c1ccc(Cl)cc1)[C@@H]1C[C@H](Cc2ccccc2)N(C(=O)c2ccc(F)cc2)c2ccccc21 (racemic) [Compound B-112, (±)-Cis-N-[2-benzyl-1-(4-fluoro-benzoyl)-1,2,3,4-tetrahydro-quinolin-4-yl]-N-(4-chloro-phenyl)-propionamide]	< 10 µM
CC(=O)N(c1ccccc1)[C@H]1C[C@@H](C)N(C(=O)c2ccc(C(C)(C)C)cc2)c2ccccc21 [Compound A-8, (2R,4S)-cis-N-[1-(4-tert-butyl-benzoyl)-2-methyl-1,2,3,4-tetrahydro-quinolin-4-yl]-N-phenyl-acetamide]	< 60 µM
CC(=O)N(c1ccccc1)[C@H]1C[C@@H](C)N(C(=O)c2cccs2)c2ccccc21 [Compound A-11, (2R,4S)-N-[2-methyl-1-(thiophene-2-carbonyl)-1,2,3,4-tetrahydro-quinolin-4-yl]-N-phenyl-acetamide]	< 10 µM
CCC(=O)N(c1ccccc1)[C@H]1C[C@@H](C)N(C(=O)c2ccc(C3CCN(C(C)=O)CC3)cc2)c2ccccc21 [Compound A-51, (2R,4S)-cis-N-{1-[4-(1-acetyl-piperidin-4-yl)-benzoyl]-2-methyl-1,2,3,4-tetrahydro-quinolin-4-yl}-N-phenyl-propionamide]	< 10 µM
CC(=O)N(c1ccccc1)C1CC(C)N(C(=O)c2ccc(F)cc2)c2ccccc21 (centres unmarked) [Compound A-53]	< 60 µM
CC(=O)N(c1ccccc1)[C@H]1C[C@@H](C)N(C(=O)c2ccc(F)cc2)c2ccccc21 [Compound A-58]	< 60 µM
CC(=O)N(c1ccccc1)[C@H]1C[C@@H](C)N(C(=O)c2ccno2)c2ccccc21 [Compound A-70, (2R,4S)-cis-N-[1-(isoxazole-5-carbonyl)-2-methyl-1,2,3,4-tetrahydro-quinolin-4-yl]-N-phenyl-acetamide]	< 10 µM
CCC(=O)N(c1ccccc1)[C@H]1C[C@@H](C)N(C(=O)c2ccc(N3CCOCC3)cc2)c2ccccc21 [Compound A-120, (2R,4S)-cis-N-[2-methyl-1-(4-morpholin-4-yl-benzoyl)-1,2,3,4-tetrahydro-quinolin-4-yl]-N-phenyl-propionamide]	< 10 µM
COc1cccc(C(=O)N2c3ccccc3[C@@H](N(C(C)=O)c3ccccc3)C[C@H]2C)c1 [Compound A-126, (2R,4S)-cis-N-[1-(3-methoxy-benzoyl)-2-methyl-1,2,3,4-tetrahydro-quinolin-4-yl]-N-phenyl-acetamide]	< 60 µM

— patent US7504508B2, “PGD2 receptor antagonists for the treatment of inflammatory diseases” (Millennium Pharmaceuticals, Inc., priority 2002, dated 2009)
